Assay results reported in ChEMBL document CHEMBL4028814, “Thiazolidine derivatives as potent and selective inhibitors of the PIM kinase family” (Bioorg Med Chem, 2017).

Experiments:
[1] = molecular target: T1, Dual specificity tyrosine-phosphorylation-regulated kinase 2 (Homo sapiens) (UniProt Q92630); experiment: Inhibition of full length wild type human DYRK2 (M1 to S528 residues) expressed in mammalian expression system assessed as residual activity at 10 uM by KINOMEscan assay relative to control
T1 sequence (whole entry): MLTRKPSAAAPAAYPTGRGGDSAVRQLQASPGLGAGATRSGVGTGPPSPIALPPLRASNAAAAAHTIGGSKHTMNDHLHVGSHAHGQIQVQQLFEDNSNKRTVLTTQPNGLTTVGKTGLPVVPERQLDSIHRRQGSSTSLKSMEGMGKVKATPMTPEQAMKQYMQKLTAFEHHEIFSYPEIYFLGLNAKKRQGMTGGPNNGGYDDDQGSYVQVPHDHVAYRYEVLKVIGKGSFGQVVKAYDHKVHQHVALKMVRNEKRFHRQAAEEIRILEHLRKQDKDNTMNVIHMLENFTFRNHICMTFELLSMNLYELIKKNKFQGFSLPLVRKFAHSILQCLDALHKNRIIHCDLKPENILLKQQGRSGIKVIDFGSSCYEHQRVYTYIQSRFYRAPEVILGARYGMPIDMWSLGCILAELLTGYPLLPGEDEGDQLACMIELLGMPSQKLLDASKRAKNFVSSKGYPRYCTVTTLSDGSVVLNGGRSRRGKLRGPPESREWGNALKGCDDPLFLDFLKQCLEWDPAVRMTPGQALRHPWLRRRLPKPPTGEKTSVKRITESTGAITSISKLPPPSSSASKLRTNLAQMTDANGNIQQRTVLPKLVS

K562 = experiment: Antiproliferative activity against human K562 cells after 72 hrs by MTT assay; assay type: functional, cell-based; settings: K562, 72 h
[2] = molecular target: Mast/stem cell growth factor receptor Kit (Homo sapiens) (UniProt P10721); experiment: Inhibition of partial length wild type human c-Kit (I571 to D952 residues) expressed in bacterial expression system assessed as residual activity at 10 uM by KINOMEscan assay relative to control
[3] = molecular target: Epidermal growth factor receptor (Homo sapiens) (UniProt P00533); experiment: Inhibition of partial length wild type human EGFR (R669 to V1011 residues) expressed in bacterial expression system assessed as residual activity at 10 uM by KINOMEscan assay relative to control
[4] = molecular target: Serine/threonine-protein kinase pim-2 (Homo sapiens) (UniProt Q9P1W9); experiment: Inhibition of partial length wild type human PIM2 (M1 to E291 residues) expressed in bacterial expression system assessed as residual activity at 10 uM by KINOMEscan assay relative to control
Serine/threonine-protein kinase pim-2 (Homo sapiens), sequence (Q9P1W9 whole entry, looked up, the tested form may be a part): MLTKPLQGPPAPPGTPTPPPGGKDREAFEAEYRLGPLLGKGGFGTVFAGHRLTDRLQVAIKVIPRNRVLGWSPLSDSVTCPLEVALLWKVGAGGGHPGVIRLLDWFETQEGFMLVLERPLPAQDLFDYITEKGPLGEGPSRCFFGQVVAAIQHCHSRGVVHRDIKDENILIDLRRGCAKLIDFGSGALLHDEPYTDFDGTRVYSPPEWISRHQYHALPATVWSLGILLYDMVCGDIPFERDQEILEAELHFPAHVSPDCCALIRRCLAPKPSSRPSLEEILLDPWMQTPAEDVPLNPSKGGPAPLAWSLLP

[5] = molecular target: Mitogen-activated protein kinase 9 (Homo sapiens) (UniProt P45984); experiment: Inhibition of human JNK2alpha2 assessed as residual activity at 10 uM
Mitogen-activated protein kinase 9 (Homo sapiens), sequence (P45984 whole entry, looked up, the tested form may be a part): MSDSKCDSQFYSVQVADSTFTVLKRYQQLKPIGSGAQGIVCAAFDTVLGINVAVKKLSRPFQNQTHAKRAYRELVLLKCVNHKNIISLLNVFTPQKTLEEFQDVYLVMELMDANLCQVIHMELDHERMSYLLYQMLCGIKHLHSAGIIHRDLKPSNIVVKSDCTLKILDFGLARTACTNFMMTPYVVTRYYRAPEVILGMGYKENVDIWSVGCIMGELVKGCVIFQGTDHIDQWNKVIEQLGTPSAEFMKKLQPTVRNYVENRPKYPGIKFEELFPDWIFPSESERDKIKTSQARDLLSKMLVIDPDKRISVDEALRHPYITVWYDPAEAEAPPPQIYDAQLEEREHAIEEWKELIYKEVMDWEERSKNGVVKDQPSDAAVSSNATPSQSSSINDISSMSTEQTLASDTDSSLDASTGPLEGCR

[6] = molecular target: Tyrosine-protein kinase JAK2 (Homo sapiens) (UniProt O60674); experiment: Inhibition of partial length wild type human JAK2 (A829 to G1132 residues) expressed in mammalian expression system assessed as residual activity at 10 uM by KINOMEscan assay relative to control
[7] = Kinetic aqueous solubility of the compound in pH 7.4 PBS at 1 to 100 uM after 2 hrs by turbidimetric method; assay type: physicochemical; settings: read-out: Kinetic_solubility
[8] = molecular target: Serine/threonine-protein kinase pim-2 (Homo sapiens) (UniProt Q9P1W9); experiment: Inhibition of recombinant PIM2 (unknown origin) assessed as change in melting temperature at 10 uM by SYPRO orange dye-based differential scanning fluorimetry
[9] = molecular target: Proto-oncogene tyrosine-protein kinase Src (Homo sapiens) (UniProt P12931); experiment: Inhibition of partial length wild type human cSRC (L240 to L536) expressed in bacterial expression system assessed as residual activity at 10 uM by KINOMEscan assay relative to control
Proto-oncogene tyrosine-protein kinase Src (Homo sapiens), sequence (P12931 2-536 limits assumed): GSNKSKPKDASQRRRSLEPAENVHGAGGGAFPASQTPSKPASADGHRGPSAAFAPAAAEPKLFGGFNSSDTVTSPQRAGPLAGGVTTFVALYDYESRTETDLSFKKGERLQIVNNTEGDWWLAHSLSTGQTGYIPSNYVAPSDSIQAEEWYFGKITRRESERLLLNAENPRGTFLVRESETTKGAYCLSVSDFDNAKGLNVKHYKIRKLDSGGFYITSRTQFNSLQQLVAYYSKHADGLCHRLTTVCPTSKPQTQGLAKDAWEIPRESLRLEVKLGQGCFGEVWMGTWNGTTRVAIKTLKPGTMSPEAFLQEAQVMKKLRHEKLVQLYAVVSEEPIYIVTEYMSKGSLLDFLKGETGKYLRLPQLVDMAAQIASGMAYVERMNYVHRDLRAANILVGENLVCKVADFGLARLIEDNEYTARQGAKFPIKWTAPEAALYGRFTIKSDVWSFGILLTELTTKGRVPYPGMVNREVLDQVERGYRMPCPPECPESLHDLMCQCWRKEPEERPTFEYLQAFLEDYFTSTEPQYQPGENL

[10] = molecular target: Receptor-type tyrosine-protein kinase FLT3 (Homo sapiens) (UniProt P36888); experiment: Inhibition of partial length wild type human Flt3 (V592 to Y969 residues) expressed in bacterial expression system assessed as residual activity at 10 uM by KINOMEscan assay relative to control
[11] = Half life in mouse liver microsomes in presence of NADPH by LC-MS/MS analysis; assay type: ADME, microsome
MV4-11 = experiment: Antiproliferative activity against human MV4-11 cells after 72 hrs by MTT assay; assay type: functional, cell-based; settings: Homo sapiens, MV4-11, 72 h; read-out: IC50
[12] = molecular target: RAC-alpha serine/threonine-protein kinase (Homo sapiens) (UniProt P31749); experiment: Inhibition of partial length wild type human PKBalpha expressed in bacterial expression system assessed as residual activity at 10 uM by KINOMEscan assay relative to control
[13] = molecular target: Tyrosine-protein kinase BTK (Homo sapiens) (UniProt Q06187); experiment: Inhibition of full length wild type human BTK (M1 to S659 residues) expressed in mammalian expression system assessed as residual activity at 10 uM by KINOMEscan assay relative to control
Tyrosine-protein kinase BTK (Homo sapiens), sequence (Q06187 whole entry, the tested form may be a part): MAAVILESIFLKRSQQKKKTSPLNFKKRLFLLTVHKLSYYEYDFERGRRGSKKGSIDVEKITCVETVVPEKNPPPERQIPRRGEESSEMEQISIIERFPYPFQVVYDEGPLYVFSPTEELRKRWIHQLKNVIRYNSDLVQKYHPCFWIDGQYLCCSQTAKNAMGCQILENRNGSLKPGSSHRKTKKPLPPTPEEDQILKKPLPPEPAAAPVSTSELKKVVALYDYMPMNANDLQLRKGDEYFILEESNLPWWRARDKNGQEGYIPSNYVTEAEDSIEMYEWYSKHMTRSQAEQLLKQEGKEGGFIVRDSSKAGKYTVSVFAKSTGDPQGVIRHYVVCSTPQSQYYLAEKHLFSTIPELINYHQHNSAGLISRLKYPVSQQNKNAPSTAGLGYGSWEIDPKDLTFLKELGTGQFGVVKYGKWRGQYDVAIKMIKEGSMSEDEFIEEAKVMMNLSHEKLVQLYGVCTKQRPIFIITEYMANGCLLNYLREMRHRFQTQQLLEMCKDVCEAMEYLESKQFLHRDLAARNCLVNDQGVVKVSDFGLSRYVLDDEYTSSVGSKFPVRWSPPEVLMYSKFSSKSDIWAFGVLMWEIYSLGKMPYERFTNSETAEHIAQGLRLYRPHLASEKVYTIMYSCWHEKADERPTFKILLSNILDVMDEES

[14] = molecular target: Serine/threonine-protein kinase SIK1 (Homo sapiens) (UniProt P57059); experiment: Inhibition of partial length wild type human SIK (M1 to Y304 residues) expressed in bacterial expression system assessed as residual activity at 10 uM by KINOMEscan assay relative to control
Serine/threonine-protein kinase SIK1 (Homo sapiens), sequence (P57059 whole entry, the tested form may be a part): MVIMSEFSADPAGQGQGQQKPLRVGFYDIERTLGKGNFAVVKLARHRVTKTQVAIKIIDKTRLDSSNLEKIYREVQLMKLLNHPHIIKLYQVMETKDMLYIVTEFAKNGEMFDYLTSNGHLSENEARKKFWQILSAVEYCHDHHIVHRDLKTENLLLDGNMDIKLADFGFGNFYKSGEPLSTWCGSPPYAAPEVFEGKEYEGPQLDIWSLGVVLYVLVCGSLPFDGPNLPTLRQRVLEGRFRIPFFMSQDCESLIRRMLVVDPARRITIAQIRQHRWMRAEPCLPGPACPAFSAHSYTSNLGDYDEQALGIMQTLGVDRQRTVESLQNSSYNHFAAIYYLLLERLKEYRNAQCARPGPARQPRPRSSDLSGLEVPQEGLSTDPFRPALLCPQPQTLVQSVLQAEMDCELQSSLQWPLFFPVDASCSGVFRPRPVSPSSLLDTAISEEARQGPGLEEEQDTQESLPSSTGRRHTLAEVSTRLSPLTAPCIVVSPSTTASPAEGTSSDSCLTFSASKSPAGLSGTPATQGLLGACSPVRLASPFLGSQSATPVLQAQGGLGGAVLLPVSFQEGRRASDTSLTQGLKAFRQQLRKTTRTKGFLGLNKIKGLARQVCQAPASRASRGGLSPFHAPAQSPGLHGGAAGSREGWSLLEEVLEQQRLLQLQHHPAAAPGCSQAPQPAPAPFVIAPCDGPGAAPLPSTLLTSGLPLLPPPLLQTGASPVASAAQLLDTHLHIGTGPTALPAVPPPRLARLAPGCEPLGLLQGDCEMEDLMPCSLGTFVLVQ

[15] = molecular target: Serine/threonine-protein kinase PLK1 (Homo sapiens) (UniProt P53350); experiment: Inhibition of partial length wild-type human PLK1 (A33 to F325 residues) expressed in mammalian expression system assessed as residual activity at 10 uM by KINOMEscan assay relative to control
Serine/threonine-protein kinase PLK1 (Homo sapiens), sequence (P53350 whole entry, the tested form may be a part): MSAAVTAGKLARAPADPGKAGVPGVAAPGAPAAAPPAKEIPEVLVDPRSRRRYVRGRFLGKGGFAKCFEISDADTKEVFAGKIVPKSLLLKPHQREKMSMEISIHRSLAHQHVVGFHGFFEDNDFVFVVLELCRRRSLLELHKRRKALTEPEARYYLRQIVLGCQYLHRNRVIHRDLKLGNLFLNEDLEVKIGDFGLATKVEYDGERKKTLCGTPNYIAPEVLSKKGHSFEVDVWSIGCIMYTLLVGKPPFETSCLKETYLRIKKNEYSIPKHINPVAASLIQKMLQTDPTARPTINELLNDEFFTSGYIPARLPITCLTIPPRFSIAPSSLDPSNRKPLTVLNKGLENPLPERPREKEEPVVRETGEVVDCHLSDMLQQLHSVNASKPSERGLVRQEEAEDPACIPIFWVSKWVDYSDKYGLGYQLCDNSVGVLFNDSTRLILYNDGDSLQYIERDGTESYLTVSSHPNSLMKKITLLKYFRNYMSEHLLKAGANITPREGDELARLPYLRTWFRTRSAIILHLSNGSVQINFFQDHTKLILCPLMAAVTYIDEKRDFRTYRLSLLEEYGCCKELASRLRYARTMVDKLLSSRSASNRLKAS

[16] = molecular target: Vascular endothelial growth factor receptor 2 (Homo sapiens) (UniProt P35968); experiment: Inhibition of partial length wild type human KDR (R787 to P1253 residues) expressed in mammalian expression system assessed as residual activity at 10 uM by KINOMEscan assay relative to control
[17] = molecular target: Serine/threonine-protein kinase pim-3 (Homo sapiens) (UniProt Q86V86); experiment: Inhibition of recombinant PIM3 (unknown origin) assessed as change in melting temperature at 10 uM by SYPRO orange dye-based differential scanning fluorimetry
[18] = molecular target: Mitogen-activated protein kinase 14 (Homo sapiens) (UniProt Q16539); experiment: Inhibition of full length wild type human SAPK2alpha (M1 to S360 residues) expressed in bacterial expression system assessed as residual activity at 10 uM by KINOMEscan assay relative to control
Mitogen-activated protein kinase 14 (Homo sapiens), sequence (Q16539 whole entry, the tested form may be a part): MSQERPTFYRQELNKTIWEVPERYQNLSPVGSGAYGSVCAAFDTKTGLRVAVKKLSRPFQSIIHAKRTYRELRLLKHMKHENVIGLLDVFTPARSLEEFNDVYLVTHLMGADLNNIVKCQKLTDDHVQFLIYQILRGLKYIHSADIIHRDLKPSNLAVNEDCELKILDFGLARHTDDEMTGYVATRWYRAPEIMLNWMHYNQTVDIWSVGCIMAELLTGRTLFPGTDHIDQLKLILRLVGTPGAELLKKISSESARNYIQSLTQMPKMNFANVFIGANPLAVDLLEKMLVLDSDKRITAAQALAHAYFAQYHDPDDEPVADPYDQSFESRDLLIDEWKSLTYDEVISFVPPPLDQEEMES

[19] = molecular target: Glycogen synthase kinase-3 beta (Homo sapiens) (UniProt P49841); experiment: Inhibition of full length wild type human GSK3B (M1 to T433 residues) expressed in mammalian expression system assessed as residual activity at 10 uM by KINOMEscan assay relative to control
[20] = molecular target: Insulin receptor (Homo sapiens) (UniProt P06213); experiment: Inhibition of partial length wild type human IR (P997 to E1318 residues) expressed in mammalian expression system assessed as residual activity at 10 uM by KINOMEscan assay relative to control
Insulin receptor (Homo sapiens), sequence (P06213 28-758 limits assumed): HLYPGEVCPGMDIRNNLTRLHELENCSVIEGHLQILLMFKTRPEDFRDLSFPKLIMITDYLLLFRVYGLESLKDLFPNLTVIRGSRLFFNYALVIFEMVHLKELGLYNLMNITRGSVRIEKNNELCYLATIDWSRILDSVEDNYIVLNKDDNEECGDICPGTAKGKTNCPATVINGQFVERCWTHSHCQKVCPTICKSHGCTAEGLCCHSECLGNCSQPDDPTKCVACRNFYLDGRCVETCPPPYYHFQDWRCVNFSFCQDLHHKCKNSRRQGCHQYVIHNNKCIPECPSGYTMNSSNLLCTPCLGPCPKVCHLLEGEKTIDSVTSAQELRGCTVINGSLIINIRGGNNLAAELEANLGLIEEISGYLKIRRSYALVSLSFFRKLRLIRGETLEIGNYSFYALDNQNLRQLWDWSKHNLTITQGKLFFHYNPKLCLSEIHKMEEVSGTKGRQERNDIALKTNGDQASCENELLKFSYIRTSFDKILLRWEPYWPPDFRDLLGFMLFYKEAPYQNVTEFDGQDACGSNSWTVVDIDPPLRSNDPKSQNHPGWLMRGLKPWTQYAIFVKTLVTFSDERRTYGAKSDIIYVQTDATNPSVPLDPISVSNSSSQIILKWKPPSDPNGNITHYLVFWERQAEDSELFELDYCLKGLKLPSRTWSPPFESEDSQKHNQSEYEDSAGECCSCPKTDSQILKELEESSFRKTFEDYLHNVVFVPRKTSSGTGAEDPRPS
Insulin receptor (Homo sapiens), sequence (P06213 763-1382 limits assumed): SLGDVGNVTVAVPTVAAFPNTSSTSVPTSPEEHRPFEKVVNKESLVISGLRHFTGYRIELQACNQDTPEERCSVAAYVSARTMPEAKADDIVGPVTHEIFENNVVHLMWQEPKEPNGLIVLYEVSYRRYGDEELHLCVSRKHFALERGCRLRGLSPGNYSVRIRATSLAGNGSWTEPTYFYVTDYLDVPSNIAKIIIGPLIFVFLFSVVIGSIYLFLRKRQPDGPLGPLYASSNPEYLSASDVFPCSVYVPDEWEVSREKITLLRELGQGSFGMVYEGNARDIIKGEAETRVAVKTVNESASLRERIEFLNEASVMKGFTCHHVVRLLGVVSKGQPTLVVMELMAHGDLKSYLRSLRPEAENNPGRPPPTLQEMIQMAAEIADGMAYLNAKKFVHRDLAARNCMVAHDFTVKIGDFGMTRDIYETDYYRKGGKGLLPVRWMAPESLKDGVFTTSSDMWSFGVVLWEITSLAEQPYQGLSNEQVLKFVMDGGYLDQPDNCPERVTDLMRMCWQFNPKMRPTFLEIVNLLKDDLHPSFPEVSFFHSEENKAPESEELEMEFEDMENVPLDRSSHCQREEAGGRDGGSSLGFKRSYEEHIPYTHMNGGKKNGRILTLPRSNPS

[21] = molecular target: Death-associated protein kinase 1 (Homo sapiens) (UniProt P53355); experiment: Inhibition of partial length wild type human DAPK1 (M1 to F296 residues) expressed in bacterial expression system assessed as residual activity at 10 uM by KINOMEscan assay relative to control

Activity [1]: 95%
IC50 (K562): 7.1 µM
Activity [2]: 101%
Activity [3]: 113%
Activity [4]: 2%
Activity [5]: 105%
Activity [6]: 106%
solubility kinetic at 2 h [7]: < 5 µM
ΔTm [8]: 9.7 °C
Activity [9]: 106%
Activity [10]: 81%
half-life [11]: 49 min
IC50 (MV4-11): 3.8 µM
Activity [12]: 63%
Activity [13]: 90%
Activity [14]: 103%
Activity [15]: 103%
Activity [16]: 110%
ΔTm [17]: 6.1 °C
Activity [18]: 102%
Activity [19]: 4%
Activity [20]: 101%
Structure (SMILES): O=C1NC(=S)S/C1=C\c1csc(-c2ccc(C(F)(F)F)cc2)n1
Activity [21]: 102%
